These results are taken from PubChem BioAssay (NCI).

Holding throughout (experiment): NCI-60 cell line screen, 48 h
Test [1] has as its system RPMI-8226 leukemia.
For test [2], the system named is IGROV1 ovarian.
The test system of test [3] is UO-31 renal.
In test [4] the test system is TK-10 renal.
In test [5] the test system is ACHN renal.
Test [6] relates to HCC-2998 colon.
Test [7] concerns T-47D breast.
The subject of test [8] is NCI-H23 lung.
Test [9] concerns LOX IMVI melanoma.
The subject of test [10] is SK-MEL-28 melanoma.

The structures appear in SMILES notation. Values joined by “and” are separate entries in the source; they are usually repeats but may differ in a detail not shown here. Equal values may be shown once.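 Method: 48-hour compound exposure of cells in 96-well plates, five concentrations, linear interpolation of endpoints. The concentration for 50% growth inhibition is given as GI50. The concentration for full growth arrest is given as TGI.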

In the case of `CC(C)c1ccc(/C=C2/C=C(c3ccc4ccccc4c3)OC2=O)cc1`, the TGI in [1] was 93.7 µM; in [2] it was greater than 100 µM; in [3] it was greater than 100 µM; in test [4], greater than 100 µM; in [5] it was greater than 100 µM; in test [6], greater than 100 µM. In addition, the TGI in test [7], in [8], in [9] and in test [10] was greater than 100 µM throughout.
Take `Cc1ccccc1-n1c(=O)c2ncn(CCCl)c2n(-c2ccccc2C)c1=S`: the TGI in test [1], in [2], in [3], in test [4], in test [5] and in [6] was greater than 100 µM each time. For the same compound, the TGI in [7], in [8], in test [9] and in [10] was greater than 100 µM in each case.
Consider `CCC[C@@H](O)C[C@@H]1CCC[C@H](C[C@@H](O)CC)N1C`, for which the TGI in test [1], in [2], in [3], in test [4], in test [5] and in test [6] was greater than 100 µM each time. Also, the TGI in [7], in [8], in test [9] and in test [10] was greater than 100 µM each time.
As to `O=C1C(=Cc2ccc(O)cc2)N=C(c2ccccc2)N1n1c(-c2ccccc2)nc2ccccc2c1=O`, the TGI in test [1], in test [2], in test [3], in test [4], in [6] and in test [7] was greater than 100 µM in each case. Further, the TGI in test [8], in test [9] and in test [10] was greater than 100 µM throughout.
For the compound `COC(=O)[C@H](Cc1c[nH]c2ccccc12)NP(=O)(O)OCC1C=CC(n2cc(C)c(=O)[nH]c2=O)O1` (stereo partly drawn), the TGI in [1], in [2], in test [6], in [7], in [8] and in [9] was greater than 100 µM throughout. For the same compound, the TGI in test [10] was greater than 100 µM.
As to `O=S1(=O)NC(=NCc2c[nH]c3ccccc23)N(c2ccccc2)c2ccncc21`, the TGI in test [3], in [4], in [5], in [6], in [7] and in test [8] was greater than 100 µM each time. For the same compound, the TGI in test [9] and in test [10] was greater than 100 µM in each case.
As to `CC1=CC2C(O1)C1C(=O)C=CC(=O)C1=CC2[N+](=O)[O-]` (stereo not drawn), the TGI in test [1] is greater than 100 µM; in [2] it was 44.7 µM; in test [3], 10.4 µM; in [4], 30.6 µM; in test [5] it was 12.8 µM; in [6], greater than 59.7 µM. For the same compound, the TGI in [7] was greater than 29.2 µM; in [8], 48.3 µM; in test [9], greater than 52.3 µM; in [10], 68.4 µM.
With `Cc1c2cnccc2c(C)c2c1c1ccccc1n2CCCN`, the TGI is 0.671 µM in test [1]; 1.74 µM and 0.973 µM in [2]; 1.88 µM and 0.225 µM in [3]; 1.83 µM in test [4]; 0.893 µM in [5]; 1.83 µM and 0.432 µM in [6]. The TGI in test [7] is 2.03 µM; in test [8] it was 1.18 µM and 0.482 µM; in test [9] it was 0.402 µM and 0.569 µM; in test [10], 1.98 µM and 1.25 µM. Moreover, the GI50 is 198 nM in test [2]; 68.5 nM in test [3]; 230 nM in test [6]; 165 nM in test [8]; 163 nM in test [9]; 333 nM in test [10].
As to `CC[C@@]1(C[C@H]2C[C@@]3(C(=O)OC)c4[nH]c5ccccc5c4CCN3C2=O)COC2(CCCCC2)O1`, the TGI in test [2] was greater than 100 µM; in [3], greater than 100 µM; in test [4], greater than 100 µM; in test [5], greater than 100 µM; in test [6], 62.1 µM; in test [7], greater than 100 µM. The TGI in test [8] and in test [9] was greater than 100 µM in each case.
On to `CCNC(=S)N/N=C/c1cc([N+](=O)[O-])ccc1O`, for which the TGI in [2] was greater than 100 µM; in test [3], greater than 100 µM; in test [4], 79.8 µM; in test [5], greater than 100 µM; in test [6] it was greater than 100 µM; in [7], greater than 100 µM. The TGI in test [8], in test [9] and in [10] was greater than 100 µM each time.
`COc1ccc(/C=C2\CCC(C)C3=C2NC(=S)NC3c2ccc(OC)c(OC)c2)cc1OC` (stereo not drawn): the TGI in [1] is greater than 31.6 µM; in test [2] it was greater than 31.6 µM; in [3], greater than 31.6 µM; in test [4], greater than 31.6 µM; in test [5], greater than 31.6 µM; in test [6], greater than 100 µM. For the same compound, the results for the TGI in test [7], in [9] and in test [10] were greater than 27.4 µM, greater than 31.6 µM and greater than 31.6 µM, respectively.
Take `COc1cc([C@@H]2c3cc4c(cc3[C@@H](Nc3ccc([N+](=O)[O-])cc3C(=O)c3ccccc3)[C@H]3COC(=O)[C@H]23)OCO4)cc(OC)c1OC`: the TGI in test [1], in test [2], in test [4], in test [5], in [6] and in test [7] was greater than 100 µM each time. The TGI in test [8] was greater than 28.6 µM; in [9] it was greater than 100 µM.
Take `O=c1[nH]cc(N=Cc2cc(Cl)cc(Cl)c2O)c(=O)[nH]1`: the TGI was 70.6 µM in [1]; 50.1 µM in test [2]; greater than 100 µM in test [3]; greater than 100 µM in test [4]; 76.1 µM in test [5]; 95.7 µM in test [6]. Also, the TGI amounted to 66.2 µM in test [7], 75.3 µM in test [8] and 54.5 µM in test [10].
